According to paper PMC7558399, “In Vitro Selective Growth-Inhibitory Activities of Phytochemicals, Synthetic Phytochemical Analogs, and Antibiotics against Diarrheagenic/Probiotic Bacteria and Cancer/Normal Intestinal Cells” (Pharmaceuticals, 2020):
Values after ≈ are worked out from the molar mass of the structure shown. Where two headings read alike, the source gives them in different places.

Key:
Assay type in all cases: cell-based
[1] = tested on: Bifidobacterium longum ssp. longum (DSMZ 20219); experiment: Broth microdilution MIC, B. longum ssp. longum; conditions: DSMZ20219; Bifidobacterium longum ssp. longum; growth inhibited by ≥80%; read-out: MIC
[2] = tested on: Bifidobacterium breve (ATCC 15700); experiment: Broth microdilution MIC, B. breve; conditions: ATCC15700, growth inhibited by ≥80%, read-out: MIC
[3] = tested on: Salmonella enterica ssp. enterica serovar Enteritidis (ATCC 13076); experiment: Broth microdilution MIC, Salmonella Enteritidis; conditions: Salmonella Enteritidis, growth inhibited by ≥80%, read-out: MIC
[4] = tested on: Bifidobacterium adolescentis (DSMZ 20087); experiment: Broth microdilution MIC, B. adolescentis; conditions: DSMZ20087, growth inhibited by ≥80%, read-out: MIC
[5] = tested on: FHs 74 Int (ATCC CCL 241) intestinal normal cells; experiment: MTT cytotoxicity assay, FHs 74 Int; conditions: FHs74Int, 72 h, FHs 74 Int (intestinal normal cells), MTT; for IC50: read-out: IC50 ± SD; for IC80: read-out: IC80 ± SD (80% inhibitory concentration of proliferation)
[6] = tested on: Yersinia enterocolitica (ATCC 9610); experiment: Broth microdilution MIC, Y. enterocolitica; conditions: ATCC9610, growth inhibited by ≥80%, read-out: MIC
[7] = tested on: Enterococcus faecalis (ATCC 29212); experiment: Broth microdilution MIC, E. faecalis; conditions: ATCC29212, growth inhibited by ≥80%, read-out: MIC
[8] = tested on: Lactobacillus casei (DSMZ 20011); experiment: Broth microdilution MIC, L. casei; conditions: Lacticaseibacillus casei, DSMZ20011; Lactobacillus casei; growth inhibited by ≥80%; read-out: MIC
[9] = tested on: 21 strains (diarrheagenic and probiotic bacteria); experiment: organism not typed; conditions: any of the 21 strains
[10] = tested on: Bifidobacterium animalis spp. lactis (DSMZ 10140); experiment: Broth microdilution MIC, B. animalis spp. lactis; conditions: DSMZ10140; Bifidobacterium animalis spp. lactis; growth inhibited by ≥80%; read-out: MIC
[11] = tested on: intestinal cancer cells (HT29 and Caco-2); experiment: MTT cytotoxicity assay, mean for intestinal cancer cells; conditions: for IC80: read-out: x¯ -CC ± SD: mean IC80 for intestinal cancer cells
[12] = tested on: Shigella flexneri (ATCC 12022); experiment: microbe, parasite or virus in culture; conditions: ATCC12022
[13] = tested on: Bacteroides fragilis (ATCC 25285); experiment: Broth microdilution MIC, B. fragilis; conditions: ATCC25285, growth inhibited by ≥80%, read-out: MIC
[14] = tested on: probiotic bacteria (9 strains); experiment: Broth microdilution MIC, probiotic bacteria as a group (mean or range over strains); conditions: mean of 9 strains; >512 replaced with 1024; read-out: x¯ -PB ± SD: mean MIC for probiotic bacteria
[15] = tested on: Escherichia coli (ATCC 25922); experiment: Broth microdilution MIC, E. coli; conditions: ATCC25922, growth inhibited by ≥80%, read-out: MIC
[16] = tested on: S. enterica ssp. enterica serovar Typhimurium (ATCC 14028); experiment: Broth microdilution MIC, Salmonella Typhimurium; conditions: Salmonella Typhimurium, growth inhibited by ≥80%, read-out: MIC
[17] = tested on: Listeria monocytogenes (ATCC 7644); experiment: Broth microdilution MIC, L. monocytogenes; conditions: ATCC7644, growth inhibited by ≥80%, read-out: MIC
[18] = tested on: Bacillus cereus (ATCC 14579); experiment: Broth microdilution MIC, B. cereus; conditions: ATCC14579, growth inhibited by ≥80%, median/mode, read-out: MIC
[19] = tested on: HT29 (ATCC HTB 38) intestinal cancer cells; experiment: MTT cytotoxicity assay, HT29; conditions: Homo sapiens, HT-29, HT29, MTT, 72 h; for IC50: read-out: IC50 ± SD; for IC80: read-out: IC80 ± SD (80% inhibitory concentration of proliferation)
[20] = tested on: Clostridium difficile (DSMZ 12056); experiment: microbe, parasite or virus in culture; conditions: Clostridioides difficile, DSMZ12056
[21] = tested on: diarrheagenic bacteria (12 strains); experiment: microbe, parasite or virus in culture; conditions: mean of 12 strains; >512 replaced with 1024; read-out: x¯ -DB ± SD: mean MIC for diarrheagenic bacteria
[22] = tested on: Bifidobacterium bifidum (ATCC 29521); experiment: Broth microdilution MIC, B. bifidum; conditions: ATCC29521, growth inhibited by ≥80%, read-out: MIC
[23] = tested on: Caco-2 (ATCC HTB 37) intestinal cancer cells; experiment: MTT cytotoxicity assay, Caco-2; conditions: Homo sapiens, Caco-2, MTT, 72 h; for IC50: read-out: IC50 ± SD; for IC80: read-out: IC80 ± SD (80% inhibitory concentration of proliferation)
[24] = tested on: Lactobacillus rhamnosus (CCM 7091); experiment: Broth microdilution MIC, L. rhamnosus; conditions: Lacticaseibacillus rhamnosus, CCM7091; Lactobacillus rhamnosus; growth inhibited by ≥80%; read-out: MIC
[25] = tested on: Lactobacillus reuteri (CCM 3625); experiment: Broth microdilution MIC, L. reuteri; conditions: Limosilactobacillus reuteri, CCM3625; Lactobacillus reuteri; growth inhibited by ≥80%; read-out: MIC
[26] = tested on: E. coli 0175:H7 (NCTC 12900); experiment: microbe, parasite or virus in culture; conditions: Escherichia coli, NCTC12900
[27] = tested on: Clostridium perfringens (DSMZ 11778); experiment: microbe, parasite or virus in culture; conditions: DSMZ11778
[28] = tested on: Vibrio parahaemolyticus (ATCC 17802); experiment: Broth microdilution MIC, V. parahaemolyticus; conditions: ATCC17802, growth inhibited by ≥80%, read-out: MIC

Row | Compound | MIC [1] [µg/mL] | MIC [2] [µg/mL] | MIC [3] [µg/mL] | MIC [4] [µg/mL] | IC50 [5] [µg/mL] | IC80 [5] [µg/mL] | MIC [6] [µg/mL] | MIC [7] [µg/mL] | MIC [8] [µg/mL] | MIC [10] [µg/mL] | IC80 [11] [µg/mL] | MIC [12] [µg/mL] | MIC [13] [µg/mL] | MIC [14] [µg/mL] | MIC [15] [µg/mL] | MIC [16] [µg/mL] | MIC [17] [µg/mL] | MIC [18] [µg/mL] | IC50 [19] [µg/mL] | IC80 [19] [µg/mL] | also measured
1 | COc1ccc2cc3[n+](cc2c1OC)CCc1cc2c(cc1-3)OCO2 [BR, berberine chloride] | 32 | 64 | > 512 | 128 | 1 ± 0.1 | 26.4 ± 0.8 | > 512 | > 512 | 64 | 32 | 60.5 ± 18.4 | > 512 | > 512 | 277 ± 400 | > 512 | 512 | > 512 | > 512 | 5 ± 1 | 42.1 ± 7.3 | MIC [9]: ≥ 32 µg/mL; IC50 ([11]; mean of HT29 and Caco-2, >512 replaced with 1024, read-out: x¯ -CC ± SD: mean IC50 for intestinal cancer cells): 12.2 ± 7 µg/mL; MIC [20]: > 512 µg/mL; MIC [21]: 875 ± 256 µg/mL; MIC [22]: 64 µg/mL; IC50 [23]: 19.4 ± 2.9 µg/mL; IC80 [23]: 78.9 ± 0.3 µg/mL; MIC [24]: 64 µg/mL; MIC [25]: > 512 µg/mL; MIC [26]: > 512 µg/mL; MIC [27]: 256 µg/mL; MIC [28]: 512 µg/mL
2 | O=C(O)c1ccccc1O [SA, salicylic acid] | 512 (≈ 3.71 mM) | > 512 | > 512 | > 512 | 73.2 ± 4.6 (≈ 0.53 mM) | 207 ± 69 (≈ 1.5 mM) | > 512 | > 512 | 512 (≈ 3.71 mM) | 128 (≈ 0.927 mM) | > 512 | > 512 | 128 (≈ 0.927 mM) | 597 ± 336 (≈ 4.32 mM) | > 512 | > 512 | > 512 | > 512 | > 512 | > 512 | x¯ -CC ± SD: mean IC50 for intestinal cancer cells ([11]; mean of HT29 and Caco-2, >512 replaced with 1024): - (Not active (MIC/IC50/80 > 512 μg/mL, the value 1024 μg/mL was used for average calculation)); x¯ -CC ± SD: mean IC50 for intestinal cancer cells ([11]; mean of HT29 and Caco-2, >512 replaced with 1024, listed as salicylic acid): ≥ 253.6 ± 208 µg/mL; MIC ([20]; Clostridium difficile, […], read-out: MIC): 256 µg/mL (≈ 1.85 mM); MIC [21]: 960 ± 212 µg/mL (≈ 6.95 mM); MIC [22]: > 512 µg/mL; IC50 [23]: > 512 µg/mL; IC80 [23]: > 512 µg/mL; MIC [24]: 512 µg/mL (≈ 3.71 mM); MIC [25]: 512 µg/mL (≈ 3.71 mM); MIC [26]: > 512 µg/mL; MIC [27]: > 512 µg/mL; MIC [28]: > 512 µg/mL
